The subject of test [1] is Caspase-3 and PARP in HepG2 cells. In words: Western blot of apoptosis-related proteins. The test is classed as cell-based, human. As to conditions: HepG2, 24 h. As to the method:
Figure 6 (A) Morphological changes in cancer cells and nuclei. (B) 8n induced apoptosis in HepG2 cells. Cultured HepG2 cells were treated with the indicated concentrations of 8n for 48 h. The cells were then were stained with DAPI and observed by fluorescence microscopy. (C) 8n induces apoptosis in a dose-dependent manner. HepG2 cells were treated with different concentrations of 8n for 48 h, and Annexin V and propidium iodide staining were performed. (D) The percentages of early apoptotic and total apoptotic cells were quantified using flow cytometry. *p < 0.05; **p < 0.01. (E) The expression of apoptotic-related proteins in HepG2 cells treated with 8n. HepG2 cells were treated with various concentrations of 8n for 24 h and were then harvested and lysed. The expression levels of Caspase-3, Cleaved Caspase-3, Bax, Bcl-2, PARP and cleaved PARP were measured by Western blotting. TEXT PRINTED IN THE PICTURE: (C) Compound 8n: Dead 1.50 % (Control); Late Apop./Dead 4.95 % (Control); Early Apop. 1.05 % (Control); Dead 1.95 % (0.1 μM); Late Apop./Dead 7.80 % (0.1 μM); Early Apop. 1.60 % (0.1 μM); Dead 7.81 % (0.3 μM); Late Apop./Dead 9.19 % (0.3 μM); Early Apop. […]
The cells were washed with PBS and lysed with ice-cold lysis buffer supplemented with protease inhibitors (Roche) for 30 min. The protein content of the supernatants of lysates was determined using a bicinchoninic acid assay. […]
In general terms: Immunoblotting shows a protein as a band on a membrane.

The test system of a further test is HepG2 cells. In words: Annexin V/PI apoptosis, flow cytometry. In kind it is cell-based, human. As to conditions: 48 h. As to the method: First, the influence of 8n on the cytoskeleton was evaluated using morphological observations. After treatment with 8n, the morphological features of tumour cells changed greatly, and the changed characteristics included the rounding-up of cells, rough membrane surfaces, and more spherical or ovoid cytoplasmic fragments (Fig. 6A). However, the control group, which lacked compound 8n, had good growth. Next, we examined whether the morphological changes were the result of apoptosis induced by compound 8n using DAPI staining and FACScan.
Figure 6 (A) Morphological changes in cancer cells and nuclei. (B) 8n induced apoptosis in HepG2 cells. […] The cells were then were stained with DAPI and observed by fluorescence microscopy. […] (D) The percentages of early apoptotic and total apoptotic cells were quantified using flow cytometry. *p < 0.05; **p < 0.01. […] The expression levels of Caspase-3, Cleaved Caspase-3, Bax, Bcl-2, PARP and cleaved PARP were measured by Western blotting. […]
HepG2 cells were grown on glass coverslips and fixed in 4% paraformaldehyde. […] 8n-induced apoptosis was assessed using a fluorescence microscope and the Annexin V-FITC apoptosis Detection Kit (Beyotime Biotechnology, Shanghai, China) according to the manufacturer’s instructions. […] Stained cells were analysed with a FACScan analyser (argon laser, Becton Dickinson, USA). All data were analysed by using the FlowJo software.
In general terms: In flow cytometry, cells or beads pass a laser one at a time.

For the next test, the system named is MDA-MB-231. In words: MTT antiproliferative assay, MDA-MB-231. As to conditions: read-out: IC50 MDA-MB-231; MTT, 72 h. For orientation: Tetrazolium assays rely on reduction of a dye to a coloured formazan, in cell work by metabolically active cells.
Another test relates to HCT116. In words: MTT antiproliferative assay, HCT116. As to conditions: read-out: IC50 HCT116; MTT, 72 h.

The structures appear in SMILES notation. Bounds are passed on as bounds.

Method for HCT116: (§1) The inhibition of tumour cell growth was measured by a modified tetrazolium (MTT) salt assay, as previously described[39]. Cells were cultured in a 96-well plate and treated with culture medium alone or different concentrations of the compounds. The cells were incubated for 72 h, and then, the MTT assay reagent was added. After a 4 h incubation, the formazan product was quantitated at 570 nm. The IC50 values (the concentrations that gave rise to 50% inhibition of cell viability) were calculated using GraphPad Prism 6 using a variable slope (four parameters).
Method for MDA-MB-231: as §1

Turning to `CC(C)=CCC12OC(C)(C)C3CC(C=C4C(=O)c5c(OC(=O)N6CCC(N7CCCCC7)CC6)cccc5OC431)C2=O` (centres unmarked) [Compound 8n], the “levels of cleaved caspase-3/PARP” value in test [1] is given as “increased”. The apoptotic cells entry is given as “more than 11.89%” in the test on HepG2 cells (0.3 μM) and above 46.3% in the test on HepG2 cells (1 μM). For the same compound, the figures for the IC50 with MDA-MB-231 and in the test with HCT116 were 1200 ± 70 nM and 970 ± 120 nM, respectively.

Values taken from PMC5073322, “Novel Natural Product-like Caged Xanthones Bearing a Carbamate Moiety Exhibit Antitumor Potency and Anti-Angiogenesis Activity In vivo” (Scientific Reports, 2016).
